# Measurements taken from patent US4496590A, “Benzyl alcohol derivatives, their preparation and use” (Sterling Drug Inc., priority 1983, dated 1985).
# Like-named read-outs stand apart in the source and are kept apart here.
# Assays:
# cyclooxygenase = target: T1, cyclooxygenase (Rattus norvegicus, UniProt Q63921); assay: inhibition of cyclooxygenase derived from rat basophilic leukemia (RBL-1) cells (PGD2 formation, C1); format: biochemical; conditions: RBL-1 enzyme, read-out: % Inhibition C1 (cyclooxygenase product PGD2)
# T1 construct: 14C-arachidonic acid substrate, PGD2 measured
# T1 sequence (Q63921 27-602): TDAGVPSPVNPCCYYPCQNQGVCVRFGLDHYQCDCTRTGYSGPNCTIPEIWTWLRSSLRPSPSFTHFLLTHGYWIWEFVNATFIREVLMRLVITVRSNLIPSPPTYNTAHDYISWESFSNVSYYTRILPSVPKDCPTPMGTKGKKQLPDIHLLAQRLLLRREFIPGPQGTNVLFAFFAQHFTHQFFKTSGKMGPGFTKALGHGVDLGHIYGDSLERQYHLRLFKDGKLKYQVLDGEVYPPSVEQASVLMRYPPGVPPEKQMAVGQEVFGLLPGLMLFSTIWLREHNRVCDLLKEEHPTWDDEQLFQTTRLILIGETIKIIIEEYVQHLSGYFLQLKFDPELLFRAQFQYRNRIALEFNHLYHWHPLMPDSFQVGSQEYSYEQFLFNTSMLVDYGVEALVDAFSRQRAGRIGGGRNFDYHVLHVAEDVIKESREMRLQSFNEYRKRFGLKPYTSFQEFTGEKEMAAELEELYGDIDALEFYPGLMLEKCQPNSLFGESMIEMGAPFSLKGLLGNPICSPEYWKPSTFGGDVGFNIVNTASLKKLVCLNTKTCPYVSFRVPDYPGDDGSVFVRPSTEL
# Procedure: (§1) The primary screening test used is a determination of the inhibition of lipoxygenase and cyclooxygenase derived from rat basophilic leukemia (RBL-1) cells. The test was carried out according to the following procedure:
# (§2) Single cell suspensions of RBL-1 cells are homogenized to obtain the microsomal fraction containing lipoxygenase and cyclooxygenase. Test compounds are added to the enzyme-containing homogenate for a 5 min preincubation period at 37° C. prior to the addition of ^14 C-arachidonic acid substrate. Following incubation at 37° C. for 15 min, the reaction is stopped by the addition of 2M formic acid and the enzyme-substrate products are extracted into chloroform. An aliquot of the extract is evaporated to dryness, reconstituted in ether to 1/10 original volume, spotted on thin layer chromatography plates and chromatographed. The peak areas of radioactivity representing the products are located by scanning the plates. The quantity of products formed is estimated by measuring the height of the radioactivity peaks observed on the chromatographic scans. Alternatively, the areas of radioactivity are scraped from the plate and the ^14 C quantitated by scintillation counting. The percent inhibition in the formation of the cyclooxygenase product PGD2, designated as Cl and lipoxygenase products, L1 designated for 5,12-di-HETE and L2 for 5-HETE are shown. Compounds with >50% inhibition of L1 and L2 at a screening concentration of 1 μM are considered active.
# (§3) ^(a) Percent inhibition of cyclooxygenase (C1) and lipoxygenase (L1
# (§4) and L2) formation at a dose of 1 μM.
# (§5) ^(b) Inhibitory concentration (μ M) in 50% of tests.
# lipoxygenase = target: T2, lipoxygenase (Rattus norvegicus, UniProt P12527); assay: inhibition of lipoxygenase derived from rat basophilic leukemia (RBL-1) cells (L1 5,12-di-HETE and L2 5-HETE formation); format: biochemical; conditions: RBL-1 enzyme
# T2 construct: Single cell suspensions of RBL-1 cells are homogenized to obtain the microsomal fraction containing lipoxygenase and cyclooxygenase; endogenous in cells; host or cells: RBL-1 (rat basophilic leukemia) cells, homogenate / microsomal fraction
# T2 sequence (P12527 1-673): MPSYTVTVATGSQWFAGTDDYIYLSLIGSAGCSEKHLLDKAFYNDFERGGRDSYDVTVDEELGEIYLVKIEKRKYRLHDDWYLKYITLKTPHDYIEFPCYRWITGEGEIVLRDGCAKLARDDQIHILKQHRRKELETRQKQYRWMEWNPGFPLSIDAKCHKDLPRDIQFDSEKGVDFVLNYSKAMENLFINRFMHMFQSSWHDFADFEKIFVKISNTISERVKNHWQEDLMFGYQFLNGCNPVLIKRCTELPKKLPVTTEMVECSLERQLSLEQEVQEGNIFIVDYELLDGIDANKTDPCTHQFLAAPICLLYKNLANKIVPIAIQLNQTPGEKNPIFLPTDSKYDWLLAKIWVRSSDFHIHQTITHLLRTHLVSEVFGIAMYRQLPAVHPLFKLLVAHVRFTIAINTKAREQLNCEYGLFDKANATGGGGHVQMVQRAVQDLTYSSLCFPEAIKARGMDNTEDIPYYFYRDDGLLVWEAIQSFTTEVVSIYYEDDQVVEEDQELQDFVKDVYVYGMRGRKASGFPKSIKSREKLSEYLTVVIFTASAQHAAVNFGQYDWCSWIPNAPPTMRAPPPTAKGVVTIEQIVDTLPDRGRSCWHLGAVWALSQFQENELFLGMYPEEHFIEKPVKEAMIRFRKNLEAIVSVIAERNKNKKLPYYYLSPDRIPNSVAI
# Procedure: as §1, §2, §3, §4, §5
# [1] = test system: SRS-A component of immunologically induced broncho-construction; assay: effect on the SRS-A component of immunologically induced bronchoconstriction in guinea pigs; format: in vivo; conditions: i.v.; for ED50: Cavia porcellus, iv, guinea pig, indomethacin + chlorpheniramine medicated, arachidonic acid, antigen challenge, read-out: In vivo Guinea Pig ED50 i.v.
# Procedure: The test was carried out according to the following procedure:
# Two weeks after immunization with egg albumin, guinea pigs are prepared for bronchoconstruction determination. One hour prior to antigen challenge, each animal is dosed orally with idomethacin and chlorpheniramine. Animals are anesthetized with sodium pentobarbital, the trachea cannulated and the animal artifically respired. Arachidonic acid is administered intravenously prior to antigen challenge. The resulting bronchoconstruction is recorded by the standard lung overflow procedure and the peak increase in intratracheal pressure (mm Hg) over a 10 minute observation period is recorded. Compounds are evaluated for their ability to prevent the increased intratracheal pressure in an experimental group of animals as compared to the medicated (indomethacin+chlorpheniramine+arachidonic acid) control group. The results are expressed in terms of percent inhibition or as ED50 values (effective does in 50% of the animals).
# [2] = L1 5,12-di-HETE, read-out: % Inhibition L1 (lipoxygenase product 5,12-di-HETE)
# [3] = L2 5-HETE, read-out: % Inhibition L2 (lipoxygenase product 5-HETE)
# [4] = L1 5,12-di-HETE, read-out: IC50 L1 (lipoxygenase product 5,12-di-HETE)
# [5] = L2 5-HETE, read-out: IC50 L2 (lipoxygenase product 5-HETE)
compound,measurement,setting,value
"OCc1cc(Cl)ccc1Nc1ccc(O)cc1 [Example 3c, 5-Chloro-2-(4-hydroxyphenylamino)benzenemethanol]",inhibition at 1 µM,cyclooxygenase,6%
same,inhibition at 1 µM,lipoxygenase; [2],81%
same,inhibition at 1 µM,lipoxygenase; [3],99%
same,IC50,lipoxygenase; [4],60 nM
same,IC50,lipoxygenase; [5],40 nM
same,ED50,[1],0.49 mg/kg
"OCc1ccccc1Nc1ccc(O)cc1 [Example 2c, 2-(4-Hydroxyphenylamino)benzenemethanol]",inhibition at 1 µM,cyclooxygenase,4%
same,inhibition at 1 µM,lipoxygenase; [2],84%
same,inhibition at 1 µM,lipoxygenase; [3],94%
same,IC50,lipoxygenase; [4],380 nM
same,IC50,lipoxygenase; [5],280 nM
same,ED50,[1],0.84 mg/kg
"COc1ccc(Nc2ccc(O)cc2)c(CO)c1 [Example 1c, 2-(4-Hydroxyphenylamino)-5-methoxybenzenemethanol]",inhibition at 1 µM,cyclooxygenase,2%
same,inhibition at 1 µM,lipoxygenase; [2],88%
same,inhibition at 1 µM,lipoxygenase; [3],98%
same,IC50,lipoxygenase; [4],200 nM
same,IC50,lipoxygenase; [5],90 nM
same,ED50,[1],0.13 mg/kg
"COc1ccc(Nc2ccc(O)cc2)c(C(C)O)c1 (stereo not drawn) [Example 6c, 2-(4-Hydroxyphenylamino)-5-methoxy-α-methylbenzenemethanol]",inhibition at 1 µM,cyclooxygenase,2%
same,inhibition at 1 µM,lipoxygenase; [2],89%
same,inhibition at 1 µM,lipoxygenase; [3],98%
same,IC50,lipoxygenase; [4],200 nM
same,IC50,lipoxygenase; [5],160 nM
"CC(O)c1ccccc1Nc1ccc(O)cc1 (stereo not drawn) [Example 5c, 2-(4-Hydroxyphenylamino)-α-methylbenzenemethanol]",inhibition at 1 µM,cyclooxygenase,14%
same,inhibition at 1 µM,lipoxygenase; [2],86%
same,inhibition at 1 µM,lipoxygenase; [3],99%
same,IC50,lipoxygenase; [4],200 nM
same,IC50,lipoxygenase; [5],180 nM
"COc1ccc(N=C2C=CC(=O)C=C2)c(CO)c1 [Example 8, 4-(2-Hydroxymethyl-4-methoxyphenylimino)-2,5-cyclohexadien-1-one]",inhibition at 1 µM,cyclooxygenase,0%
same,inhibition at 1 µM,lipoxygenase; [2],85%
same,inhibition at 1 µM,lipoxygenase; [3],96%
same,IC50,lipoxygenase; [4],190 nM
same,IC50,lipoxygenase; [5],150 nM
same,ED50,[1],0.12 mg/kg
"OCc1ccc(Cl)cc1Nc1ccc(O)cc1 [Example 4c, 4-Chloro-2-(4-hydroxyphenylamino)benzenemethanol]",inhibition at 1 µM,cyclooxygenase,24%
same,inhibition at 1 µM,lipoxygenase; [2],82%
same,inhibition at 1 µM,lipoxygenase; [3],100%
same,IC50,lipoxygenase; [4],230 nM
same,IC50,lipoxygenase; [5],160 nM
same,In vivo Guinea Pig percent inhibition,[1]; 0.3 mg/kg,43%
same,In vivo Guinea Pig percent inhibition,[1]; 1-3 mg/kg,63%
